From paper PMC9061857, “A fluorogenic probe for granzyme B enables in-biopsy evaluation and screening of response to anticancer immunotherapies” (Nature Communications, 2022)
*1 amine or outer side, *2 acyl side, *3 side chain or, on linkers, in order; H or OH if unused. Primed or numbered codes have the meaning given here. The star is where a group is joined. BODIPY(FL) = CC1=CC(C)=[N+]2C1=Cc1ccc(CCC(=O)*)n1[B-]2(F)F; Ethylenediamine = C(CN[*:2])N[*:1]; AMC = Cc1cc(=O)oc2cc(N*)ccc12; Dabcyl′ = quencher

How the values were obtained:
[1] = target: T1, human GzmB (hGzmB) (Homo sapiens, UniProt P10144); assay: HPLC conversion of fluorogenic peptides by hGzmB; assay type: biochemical; conditions: TRIS buffer, 37 °C
T1 construct: For active GzmB vs pro-GzmB, p < 0.0001
Experimental: (§1) Supplementary Figure 1. Reactivity of fluorogenic substrates against human GzmB and limits of detection. a) Reaction conversion rates (by HPLC-UV detection at 350 nm) for Ac-IEPD-AMC (50 μM) in TRIS buffer (see Methods) at 37 °C containing different concentrations of hGzmB. Data presented as mean values±SEM (n=3 independent biological experiments). b) Reaction conversion rates (by HPLC-UV detection at 500 nm) for the tetrapeptide T1 (25 μM) in TRIS buffer at 37 °C containing different concentrations of hGzmB. Data presented as mean values±SEM (3 independent biological experiments).
(§2) Source data provided as a Source Data file.
(§3) (1 picture or pasted object on this page, not shown here)
Supplementary Table 1. Chemical structures and reactivity of FRET-based tetrapeptides against human GzmB.
Code Structure Linker Quencher HPLC conversion HPLC conversion […]
Supplementary Table 2. Sequences and reactivity of FRET-based hexapeptides against […]
Code Peptide sequence HPLC conversion
H1 Ile-Glu-Pro-Asp-Ala-Gly 75%
H2 Ile-Glu-Pro-Asp-Ser-Gly 80%
H3 Ile-Glu-Pro-Asp-Ser-Leu 80%
H4 Ile-Glu-Pro-Asp-Trp-Leu 82%
H6 Ile-Glu-Pro-Asp-Trp-Arg 40%
H7 Ile-Glu-Pro-Asp-Arg-Leu 60%
H5m Ile-Glu-Phe-Asp-Ala-Leu 70%

[2] = tested on: hGzmB; assay: Limit of detection of hGzmB by probe fluorescence; assay type: biochemical, human; conditions: limit of detection of hGzmB (Fig. S1)
Experimental: as §1, §2, §3
Supplementary Figure 4. Comparative enzyme selectivity and limit of detection for […]
Ac-IEPD-AMC (all at 25 μM) after incubation for 90 min at 37 °C with hGzmB (light gray bars), human caspase-3 (dark gray bars) and hGzmA (white bars) (all enzymes used at 20 nM). Data presented as mean values±SEM (n=3). Excitation wavelengths: 450 nm (for […]
450 nm (for Ac-IEPD-AMC). b) Limit of detection of hGzmB by fluorescence emission […]
presented as mean values±SD (2 independent experiments with 3 technical replicates).

[3] = tested on: GzmB; conditions: 4-mer, fluorogenic dye; ref [39]; cited from earlier work
From the text: Table 1 Summary of fluorescent peptide-based probes for GzmB. | column: Kcat (s^−1); KM (µM); Kcat/KM (M^−1 s^−1)

[4] = target: human granzyme B (human) (UniProt P10144)
[5] = target: human granzyme B (human) (UniProt P10144); remark: listed apart in the source
[6] = target: human granzyme B (human) (UniProt P10144); remark: listed apart in the source
[7] = target: human granzyme B (human) (UniProt P10144); remark: listed apart in the source
[8] = probe 25 μM (Ac-IEPD-AMC 50 μM), HPLC-UV

T1 sequence (P10144 21-247): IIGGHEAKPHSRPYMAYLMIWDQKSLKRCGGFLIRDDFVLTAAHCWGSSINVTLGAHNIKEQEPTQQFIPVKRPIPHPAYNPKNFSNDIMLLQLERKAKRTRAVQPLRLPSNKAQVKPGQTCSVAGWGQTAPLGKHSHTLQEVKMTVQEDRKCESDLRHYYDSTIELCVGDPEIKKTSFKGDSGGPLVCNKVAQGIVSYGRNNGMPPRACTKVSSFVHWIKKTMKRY
human granzyme B (human), sequence (P10144 21-247): as above

Ac-IEPD-{AMC}
HPLC conversion rate ([1]; 2h-20 nM hGzmB, Data 1): 0.5%
HPLC conversion rate ([1]; 2h-20 nM hGzmB, Data 2): 0.5%
HPLC conversion rate ([1]; 2h-20 nM hGzmB, Data 3): 0.5%
HPLC conversion rate ([1]; 2h-50 nM hGzmB, Data 1): 2.5%
HPLC conversion rate ([1]; 2h-50 nM hGzmB, Data 2): 2%
HPLC conversion rate ([1]; 2h-50 nM hGzmB, Data 3): 2.5%
HPLC conversion rate ([1]; 2h-100 nM hGzmB, Data 1): 7.5%
HPLC conversion rate ([1]; 2h-100 nM hGzmB, Data 2): 5%
HPLC conversion rate ([1]; 2h-100 nM hGzmB, Data 3): 6.5%
HPLC conversion rate ([1]; 6h-20 nM hGzmB, Data 1): 0.5%
HPLC conversion rate ([1]; 6h-20 nM hGzmB, Data 2): 0.5%
HPLC conversion rate ([1]; 6h-20 nM hGzmB, Data 3): 0.75%
HPLC conversion rate ([1]; 6h-50 nM hGzmB, Data 1): 3%
HPLC conversion rate ([1]; 6h-50 nM hGzmB, Data 2): 2%
HPLC conversion rate ([1]; 6h-50 nM hGzmB, Data 3): 2%
HPLC conversion rate ([1]; 6h-100 nM hGzmB, Data 1): 8.5%
HPLC conversion rate ([1]; 6h-100 nM hGzmB, Data 2): 7%
HPLC conversion rate ([1]; 6h-100 nM hGzmB, Data 3): 9%
HPLC conversion rate ([1]; 24h-20 nM hGzmB, Data 1): 1.5%
HPLC conversion rate ([1]; 24h-20 nM hGzmB, Data 2): 1%
HPLC conversion rate ([1]; 24h-20 nM hGzmB, Data 3): 1.5%
HPLC conversion rate ([1]; 24h-50 nM hGzmB, Data 1): 4%
HPLC conversion rate ([1]; 24h-50 nM hGzmB, Data 2): 2.5%
HPLC conversion rate ([1]; 24h-50 nM hGzmB, Data 3): 3.5%
HPLC conversion rate ([1]; 24h-100 nM hGzmB, Data 1): 13%
HPLC conversion rate ([1]; 24h-100 nM hGzmB, Data 2): 9%
HPLC conversion rate ([1]; 24h-100 nM hGzmB, Data 3): 12.5%
HPLC conversion (20 nM hGzmB, 2 h) [1, 8]: < 1%
HPLC conversion (100 nM hGzmB, 24 h) [1, 8]: 10%
LoD [2]: 25 nM
Kcat/KM [3]: 3300 M⁻¹ s⁻¹
Km [3]: 160 µM
kcat [3]: 0.5 s⁻¹

B1: Ac-IEPD-AMC (peptide)
peptide: Ac-IEPD-{AMC}
SMILES: CC[C@H](C)[C@H](NC(C)=O)C(=O)N[C@@H](CCC(=O)O)C(=O)N1CCC[C@H]1C(=O)N[C@@H](CC(=O)O)C(=O)Nc1ccc2c(C)cc(=O)oc2c1
enzymatic cleavage of Ac-IEPD-AMC by hGzmB (20 nM for 2 h: <1%; 100 nM for 24 h: 10%) [4]: 10%

{BODIPY(FL)}-IEPDWR-{Dabcyl′} [hexapeptide H6]
conversion (cleavage) by hGzmB [5]: 40%
signal-to-background ratio of fluorescence emission (peptide 25 μM, hGzmB 20 nM) [6]: 12 fold

{BODIPY(FL)}-IEPDAL-{Dabcyl′} [probe H5]
KM of cleavage by hGzmB (20 nM), Michaelis-Menten fit [7]: 9.6 µM
Kcat of cleavage by hGzmB (20 nM), Michaelis-Menten fit [7]: 117 s⁻¹
Kcat/KM of cleavage by hGzmB (20 nM), Michaelis-Menten fit [7]: 1.2e+07 M⁻¹ s⁻¹
signal-to-background ratio of fluorescence emission (peptide 25 μM, hGzmB 20 nM) [6]: 153 fold
t50: time to reach 50-fold fluorescence increase (peptide 25 μM, hGzmB 20 nM) [6]: 7 min

{BODIPY(FL)}-IEPD-{Ethylenediamine-Dabcyl′} [tetrapeptide T1]
KM of cleavage by GzmB [7]: 30.8 µM
Kcat of cleavage by GzmB [7]: 2.3 s⁻¹
Kcat/KM of cleavage by GzmB [7]: 59000 M⁻¹ s⁻¹
enzymatic cleavage of T1 by hGzmB (20 nM for 2 h: <5%; 100 nM for 24 h: 14%) [4]: 14%
